According to US10421761B2, “Compounds for kinase modulation, and indications therefor” (Plexxikon Inc., priority 2013, dated 2019):
Like-named read-outs stand apart in the source and are kept apart here.

Key:
B9 (HRAS Q61L) cell line = experiment: B9 P-ERK cell activation assay (AlphaScreen); type: cell-based, mouse; conditions: Mus musculus, P-ERK cell activation, B9, read-out: Cell activity (EC50 μM) B9_pERK
Procedure, shortened: (§1)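 Mouse B9 (HRAS-driven skin SCC) or human IPC-298 melanoma cells treated with an 8-point compound titration for one hour at 37° C., then lysed. ERK1/2 phosphorylation at Thr202/Tyr204 read by AlphaScreen with total-ERK and phospho-ERK antibodies.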

[1] = tested on: A375 (BRAF V600E) cell line; experiment: A375 P-ERK inhibition assay (AlphaScreen); type: cell-based, human; conditions: Homo sapiens, A-375; A375_P-ERK
Procedure, shortened: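 A375 cells treated with 8-point compound titration for 1 h at 37° C, then lysed. ERK1/2 Thr202/Tyr204 phosphorylation measured by AlphaScreen, using biotinylated total-ERK antibody on donor beads and phospho-specific antibody on acceptor beads.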

BRAF V600E = biological target: T1, BRAF V600E (Homo sapiens, UniProt P15056, V600E); experiment: BRAF V600E biochemical kinase activity assay (AlphaScreen, biotin-MEK1 substrate); conditions: BRAF V600E biochemical inhibitory activity
T1 construct: purchased Upstate Biotechnology
T1 sequence (P15056 whole entry V600E): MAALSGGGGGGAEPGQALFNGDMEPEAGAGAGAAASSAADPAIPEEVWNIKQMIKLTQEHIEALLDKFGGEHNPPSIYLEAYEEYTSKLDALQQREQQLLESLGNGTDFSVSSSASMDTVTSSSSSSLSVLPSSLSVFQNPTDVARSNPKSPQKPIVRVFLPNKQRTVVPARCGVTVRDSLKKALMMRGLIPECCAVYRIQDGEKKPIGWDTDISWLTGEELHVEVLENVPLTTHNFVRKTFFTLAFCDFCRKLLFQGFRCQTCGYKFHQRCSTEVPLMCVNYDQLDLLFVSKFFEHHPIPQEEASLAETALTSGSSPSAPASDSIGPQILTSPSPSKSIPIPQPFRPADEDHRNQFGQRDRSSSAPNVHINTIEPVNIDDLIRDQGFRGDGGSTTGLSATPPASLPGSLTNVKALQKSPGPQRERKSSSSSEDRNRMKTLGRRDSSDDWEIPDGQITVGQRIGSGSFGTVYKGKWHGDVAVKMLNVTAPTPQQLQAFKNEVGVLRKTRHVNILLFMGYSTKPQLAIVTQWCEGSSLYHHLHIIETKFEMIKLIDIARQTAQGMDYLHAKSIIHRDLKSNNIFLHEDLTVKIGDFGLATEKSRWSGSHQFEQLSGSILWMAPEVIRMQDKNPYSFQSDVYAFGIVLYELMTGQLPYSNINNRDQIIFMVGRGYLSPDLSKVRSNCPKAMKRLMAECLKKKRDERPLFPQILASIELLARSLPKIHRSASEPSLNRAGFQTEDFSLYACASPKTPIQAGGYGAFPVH

[2] = tested on: IPC-298 (NRAS Q61L) cell line; experiment: IPC-298 P-ERK cell activation assay (AlphaScreen); type: cell-based, human; conditions: Homo sapiens, P-ERK cell activation, IPC-298, read-out: Cell activity (EC50 μM) IPC-298_P-ERK
Procedure, shortened: as §1

| Structure (SMILES) | EC50 (B9 (HRAS Q61L) cell line; numeric bounds) | IC50 [1] | IC50 (BRAF V600E) | EC50 ([2]; numeric bounds) | EC50 (B9 (HRAS Q61L) cell line; class symbols) | EC50 ([2]; class symbols) |
| --- | --- | --- | --- | --- | --- | --- |
| CC(C)(C)c1nc(-c2cccc(NS(=O)(=O)N3CCCC3)c2F)c(-c2ncnc3[nH]cnc23)s1 [P-2125, N-[3-[2-tert-butyl-5-(9H-purin-6-yl)thiazol-4-yl]-2-fluoro-phenyl]pyrrolidine-1-sulfonamide] | > 10 µM | 0.0001 to 1 µM | 0.0001 to 1 µM | > 1 µM | – | – |
| CC(C)(C)c1nc(-c2cccc(NS(=O)(=O)N3CCCC3)c2F)c(Br)s1 [P-2127, N-[3-(5-bromo-2-tert-butyl-thiazol-4-yl)-2-fluoro-phenyl]pyrrolidine-1-sulfonamide] | > 10 µM | > 10 µM | 0.0001 to 1 µM | > 10 µM | – | – |
| CC(C)(C)c1nc(-c2cccc(NS(=O)(=O)N3CC[C@@H](F)C3)c2F)c(-c2ccnc(N)n2)s1 [P-2129, (3R)-N-[3-[5-(2-aminopyrimidin-4-yl)-2-tert-butyl-thiazol-4-yl]-2-fluoro-phenyl]-3-fluoro-pyrrolidine-1-sulfonamide] | – | 0.0001 to 1 µM | 0.0001 to 1 µM | – | 0.0001 to 1 µM | 0.0001 to 1 µM |
| CC(C)(C)c1nc(-c2cccc(NS(=O)(=O)N3CC[C@H](F)C3)c2F)c(-c2ccnc(N)n2)s1 [P-2130, (3S)-N-[3-[5-(2-aminopyrimidin-4-yl)-2-tert-butyl-thiazol-4-yl]-2-fluoro-phenyl]-3-fluoro-pyrrolidine-1-sulfonamide] | – | 0.0001 to 1 µM | 0.0001 to 1 µM | – | 0.0001 to 1 µM | 0.0001 to 1 µM |
| COC(=O)N[C@@H](C)CNc1nccc(-c2sc(-c3ccccc3)nc2-c2cccc(NS(=O)(=O)N3CC[C@H](F)C3)c2F)n1 [P-2153, methyl N-[(1S)-2-[[4-[4-[2-fluoro-3-[[(3S)-3-fluoropyrrolidin-1-yl]sulfonylamino]phenyl]-2-phenyl-thiazol-5-yl]pyrimidin-2-yl]amino]-1-methyl-ethyl]carbamate] | – | 0.0001 to 1 µM | 0.0001 to 1 µM | – | 0.0001 to 1 µM | 0.0001 to 1 µM |
| COC(=O)N[C@@H](C)CNc1nccc(-c2nn(C(C)C)cc2-c2cc(Cl)cc(NS(=O)(=O)N3CC[C@@H](F)C3)c2F)n1 [P-2161, methyl N-[(1S)-2-[[4-[4-[5-chloro-2-fluoro-3-[[(3R)-3-fluoropyrrolidin-1-yl]sulfonylamino]phenyl]-1-isopropyl-pyrazol-3-yl]pyrimidin-2-yl]amino]-1-methyl-ethyl]carbamate] | – | 0.0001 to 1 µM | 0.0001 to 1 µM | > 10 µM | 0.0001 to 1 µM | – |
| COC(=O)N[C@@H](C)CNc1nccc(-c2nn(C(C)C)cc2-c2cc(Cl)cc(NS(=O)(=O)N3CCC3)c2F)n1 [P-2163, methyl N-[(1S)-2-[[4-[4-[3-(azetidin-1-ylsulfonylamino)-5-chloro-2-fluoro-phenyl]-1-isopropyl-pyrazol-3-yl]pyrimidin-2-yl]amino]-1-methyl-ethyl]carbamate] | > 10 µM | 1 to 10 µM | 1 to 10 µM | > 10 µM | – | – |
| CCN(CC)S(=O)(=O)Nc1cc(Cl)cc(-c2cn(C(C)C)nc2-c2ccnc(NC[C@H](C)NC(=O)OC)n2)c1F [P-2165, methyl N-[(1S)-2-[[4-[4-[5-chloro-3-(diethylsulfamoylamino)-2-fluoro-phenyl]-1-isopropyl-pyrazol-3-yl]pyrimidin-2-yl]amino]-1-methyl-ethyl]carbamate] | > 10 µM | 0.0001 to 1 µM | 0.0001 to 1 µM | > 10 µM | – | – |
| COC(=O)N[C@@H](C)CNc1nccc(-c2nn(C(C)C)cc2-c2cc(Cl)cc(NS(=O)(=O)N(C)C)c2F)n1 [P-2166, methyl N-[(1S)-2-[[4-[4-[5-chloro-3-(dimethylsulfamoylamino)-2-fluoro-phenyl]-1-isopropyl-pyrazol-3-yl]pyrimidin-2-yl]amino]-1-methyl-ethyl]carbamate] | – | 0.0001 to 1 µM | 0.0001 to 1 µM | > 10 µM | 0.0001 to 1 µM | – |
| COC(=O)N[C@@H](C)CNc1nccc(-c2nn(C(C)C)cc2-c2cc(Cl)cc(NS(=O)(=O)C3CCC3)c2F)n1 [P-2169, methyl N-[(1S)-2-[[4-[4-[5-chloro-3-(cyclobutylsulfonylamino)-2-fluoro-phenyl]-1-isopropyl-pyrazol-3-yl]pyrimidin-2-yl]amino]-1-methyl-ethyl]carbamate] | – | 0.0001 to 1 µM | 0.0001 to 1 µM | – | 0.0001 to 1 µM | 0.0001 to 1 µM |
| COC(=O)N[C@@H](C)CNc1nccc(-c2nn(C(C)C)cc2-c2cc(Cl)cc(NS(=O)(=O)C3CC3)c2F)n1 [P-2170, methyl N-[(1S)-2-[[4-[4-[5-chloro-3-(cyclopropylsulfonylamino)-2-fluoro-phenyl]-1-isopropyl-pyrazol-3-yl]pyrimidin-2-yl]amino]-1-methyl-ethyl]carbamate] | – | 0.0001 to 1 µM | 0.0001 to 1 µM | – | 0.0001 to 1 µM | 0.0001 to 1 µM |
| O=C(c1cc(F)cc(NS(=O)(=O)N2CCCC2)c1F)c1c[nH]c2ncc(-c3cnc(C4CC4)nc3)cc12 [P-2171, N-[3-[5-(2-cyclopropylpyrimidin-5-yl)-1H-pyrrolo[2,3-b]pyridine-3-carbonyl]-2,5-difluoro-phenyl]pyrrolidine-1-sulfonamide] | > 10 µM | 0.0001 to 1 µM | 0.0001 to 1 µM | > 1 µM | – | – |
| O=C(c1cc(F)cc(NS(=O)(=O)N2CC[C@@H](F)C2)c1F)c1c[nH]c2ncc(-c3cnc(C4CC4)nc3)cc12 [P-2172, (3R)—N-[3-[5-(2-cyclopropylpyrimidin-5-yl)-1H-pyrrolo[2,3-b]pyridine-3-carbonyl]-2,5-difluoro-phenyl]-3-fluoro-pyrrolidine-1-sulfonamide] | > 1 µM | 0.0001 to 1 µM | 0.0001 to 1 µM | > 10 µM | – | – |
| CN(C)S(=O)(=O)Nc1cc(F)cc(C(=O)c2c[nH]c3ncc(-c4cnc(C5CC5)nc4)cc23)c1F [P-2173, 5-(2-cyclopropylpyrimidin-5-yl)-3-[3-(dimethylsulfamoylamino)-2,5-difluoro-benzoyl]-1H-pyrrolo[2,3-b]pyridine] | > 10 µM | 0.0001 to 1 µM | 0.0001 to 1 µM | > 1 µM | – | – |
| O=C(c1cc(Cl)cc(NS(=O)(=O)N2CC[C@@H](F)C2)c1F)c1c[nH]c2ncc(-c3cnc(C4CC4)nc3)cc12 [P-2174, (3R)—N-[5-chloro-3-[5-(2-cyclopropylpyrimidin-5-yl)-1H-pyrrolo[2,3-b]pyridine-3-carbonyl]-2-fluoro-phenyl]-3-fluoro-pyrrolidine-1-sulfonamide] | > 10 µM | 0.0001 to 1 µM | 0.0001 to 1 µM | > 10 µM | – | – |
| [2H]C1([2H])CCC([2H])([2H])N1S(=O)(=O)Nc1cc(Cl)cc(C(=O)c2c[nH]c3ncc(-c4cnc(C5CC5)nc4)cc23)c1F [P-2176, N-[5-chloro-3-[5-(2-cyclopropylpyrimidin-5-yl)-1H-pyrrolo[2,3-b]pyridine-3-carbonyl]-2-fluoro-phenyl]-2,2,5,5-tetradeuterio-pyrrolidine-1-sulfonamide] | > 10 µM | 0.0001 to 1 µM | 0.0001 to 1 µM | > 10 µM | – | – |
| [2H]C1([2H])N(S(=O)(=O)Nc2cc(Cl)cc(C(=O)c3c[nH]c4ncc(-c5cnc(C6CC6)nc5)cc34)c2F)C([2H])([2H])C([2H])([2H])C1([2H])[2H] [P-2177, N-[5-chloro-3-[5-(2-cyclopropylpyrimidin-5-yl)-1H-pyrrolo[2,3-b]pyridine-3-carbonyl]-2-fluoro-phenyl]-2,2,3,3,4,4,5,5-octadeuterio-pyrrolidine-1-sulfonamide] | > 10 µM | 0.0001 to 1 µM | 0.0001 to 1 µM | > 10 µM | – | – |
| O=C(c1cc(C(F)(F)F)cc(NS(=O)(=O)N2CC[C@@H](F)C2)c1F)c1c[nH]c2ncc(-c3cnc(C4CC4)nc3)cc12 [P-2178, (3R)—N-[3-[5-(2-cyclopropylpyrimidin-5-yl)-1H-pyrrolo[2,3-b]pyridine-3-carbonyl]-2-fluoro-5-(trifluoromethyl)phenyl]-3-fluoro-pyrrolidine-1-sulfonamide] | > 10 µM | 1 to 10 µM | 0.0001 to 1 µM | > 10 µM | – | – |
| O=C(c1cc(C(F)(F)F)cc(NS(=O)(=O)N2CCCC2)c1F)c1c[nH]c2ncc(-c3cnc(C4CC4)nc3)cc12 [P-2179, N-[3-[5-(2-cyclopropylpyrimidin-5-yl)-1H-pyrrolo[2,3-b]pyridine-3-carbonyl]-2-fluoro-5-(trifluoromethyl)phenyl]pyrrolidine-1-sulfonamide] | > 10 µM | > 10 µM | 1 to 10 µM | > 10 µM | – | – |
| O=C(c1cc(Cl)cc(NS(=O)(=O)N2CCCC2)c1F)c1c[nH]c2ncc(-c3cnc(C4CC4)nc3)cc12 [P-2180, N-(5-chloro-3-(5-(2-cyclopropylpyrimidin-5-yl)-1H-pyrrolo[2,3-b]pyridine-3-carbonyl)-2-fluorophenyl)pyrrolidine-1-sulfonamide] | > 10 µM | < 1 µM | 0.0001 to 1 µM | > 10 µM | – | – |
| COC(=O)N[C@@H](C)CNc1nccc(-c2cn(C(C)C)nc2-c2cc(Cl)cc(NS(=O)(=O)N3CCCCC3)c2F)n1 [P-2181, methyl N-[(1S)-2-[[4-[3-[5-chloro-2-fluoro-3-(1-piperidylsulfonylamino)phenyl]-1-isopropyl-pyrazol-4-yl]pyrimidin-2-yl]amino]-1-methyl-ethyl]carbamate] | > 10 µM | 0.0001 to 1 µM | 0.0001 to 1 µM | – | – | 0.0001 to 1 µM |
